# Assay results published in patent US9896481B2, “Modified mini-hepcidin peptides and methods of using thereof” (priority 2011, dated 2018).
# Non-standard residues stand in square brackets, D forms with d. *: point of attachment. Ida = 2,2'-azanediyldiacetic acid, O=C(O)CNCC(=O)*; Ida(NHPal) = Ida cap bearing a palmityl amide; Dip = N[C@H](C(=O)O)C(c1ccccc1)c1ccccc1; β3hP = O=C(O)C[C@@H]1CCCN1; Ahx = NCCCCCC(=O)O
# Columns and labels:
# mouse [1] = experiment: Activity at 20 nmoles/mouse: serum iron 4 hours after injection versus solvent (Tables 3 and 4); format: in vivo; parameters: key: Y: “Active” means that at 4 hours after injection serum iron in peptide-injected mice decreased statistically significantly (p < 0.05) compared to solvent-injected mice; Y*: Exhibits detectable and reproducible activity at about 50% lower than the most active compounds in Table 3 and 4; settings: Table 3, intraperitoneal
# mouse [2] = experiment: as above; format: in vivo; parameters: key: Y: “Active” means that at 4 hours after injection serum iron in peptide-injected mice decreased statistically significantly (p < 0.05) compared to solvent-injected mice; Y*: Exhibits detectable and reproducible activity at about 50% lower than the most active compounds in Table 3 and 4; settings: Table 3; subcutaneous
# Hamp1-/- mice [3] = experiment: Prevention study: 2 weeks daily PR65 in iron-depleted hepcidin knockout mice on iron-loading diet
# Protocol: PR65 was administered subcutaneously in 100 μl of SL220 solubilizer. Short-term studies were carried out for up to 48 hours to establish the effectiveness of a single injection. Long-term studies (“prevention” and “treatment”) were carried out for 2 weeks using daily injections and iron and hematological parameters measured 24 hours after the last injection.
# To test the ability of PR65 to prevent, inhibit, or reduce iron loading (“prevention” studies), male Hamp1^−/− mice were iron-depleted by placing them on a low-iron diet (4 ppm iron) for 2 months starting at the age of 5-6 weeks. […] A group of mice was analyzed immediately after iron depletion (baseline group), and the remaining animals were switched to an iron-loading diet (standard chow, about 300 ppm Fe) and received daily subcutaneous injection of solvent or PR65 (20, 50 or 100 nmoles) for 2 weeks. All mouse diets were obtained from Harlan-Teklad (Madison, Wis.).
# Serum iron and non-heme iron concentrations were determined as previously described (Ramos E, et al. (2011) Hepatology 53(4):1333-1341), using acid treatment followed by a colorimetric assay for iron quantitation (Genzyme, Cambridge, Mass.). […] Complete blood counts were obtained with a HemaVet blood analyzer (Drew Scientific, Oxford, Conn.).
# After iron depletion, a group of mice was analyzed to establish the baseline iron and hematological parameters and the rest of the mice were placed on an iron-loading diet (300 ppm Fe) for 2 weeks while simultaneously receiving daily subcutaneous injections of solven only (control) or PR65 (20, 50 or 100 nmoles) in solvent. […] Hemoglobin concentrations were monitored to detect potential iron-restrictive effects of hepcidin excess on erythropoiesis.
# Hamp1-/- mice [4] = experiment: Treatment study: 2 weeks daily PR65 in iron-overloaded hepcidin knockout mice; format: in vivo, mouse; settings: 50 nmoles daily s.c., 14 days
# Protocol: To test the effect of PR65 on iron-loaded Hamp1^−/− mice (“treatment” studies), male mice were kept on the standard diet for their entire lifespan. Beginning at 12-14 weeks of age, 50 nmoles of PR65 or solvent was injected daily by the subcutaneous route for 2 weeks.
# To assess the potential of mini-hepcidins as a standalone treatment for iron overload in subjects, 12 week old iron-overloaded hepcidin knockout mice were injected with 50 nmoles of PR65 daily for 14 days. […] In contrast to mice that were iron-depleted before PR65 administration, in mice with established iron overload serum iron levels were not decreased 24 hours after the last dose compared to solvent-treated mice (p=0.682) (FIG. 15B). […] The less than 24 hours duration of the hypoferremic effect of each 50 nmoles dose may have been due to the severe iron overload of the hepcidin knockout mice at this age. Accumulated hepatocyte iron could stimulate ferroportin synthesis and iron efflux from hepatocytes into plasma by relieving the inhibition of ferroportin translation by iron-regulatory proteins (IRPs) interacting with 5′ iron-regulatory element (5′ IRE) in the ferroportin mRNA, and possibly by other mechanisms.
# mouse [5] = experiment: Activity at 20 nmoles/mouse: serum iron 4 hours after injection versus solvent (Tables 3 and 4); format: in vivo; parameters: key: Y: “Active” means that the injection of the compound resulted in statistically significant (p < 0.05) lowering of serum iron compared to solvent injection when measured 4 hours after administration; Y*: detectable and reproducible activity but at least 50% lower than other active compounds in Table 4; settings: Table 4; intraperitoneal; serum iron 4 h after administration
compound,measurement,setting,value
CCCCCCCCCCCCCCCC(=O)NCCCOCCOCCOCCCNC(=O)COCCOCCOCCNC(=O)C[C@H](Cc1ccccc1)NC(=O)[C@H](CCCNC(=N)N)NC(=O)[C@H](CS)NC(=O)[C@H](CCCNC(=N)N)NC(=O)C[C@@H]1CCCN1C(=O)[C@@H](NC(=O)[C@H](Cc1c[nH]cn1)NC(=O)[C@@H](NC(=O)CNCC(=O)O)[C@@H](C)O)C(c1ccccc1)c1ccccc1 [PR61],Active @ 20 nmoles/mouse IP,mouse [1],Y (also
same,Active @ 20 nmoles/mouse by SQ,mouse [2],Y (also
CCCCCCCCCCCCCCCC(=O)NCCCOCCOCCOCCCNC(=O)C[C@H](Cc1ccccc1)NC(=O)[C@H](CCCNC(=N)N)NC(=O)[C@H](CS)NC(=O)[C@H](CCCNC(=N)N)NC(=O)C[C@@H]1CCCN1C(=O)[C@@H](NC(=O)[C@H](Cc1c[nH]cn1)NC(=O)[C@@H](NC(=O)CNCC(=O)O)[C@@H](C)O)C(c1ccccc1)c1ccccc1 [PR65],hemoglobin levels,"Hamp1-/- mice [3]; 20 nmoles per day s.c., 2 weeks",did not change significantly
same,reduction of hemoglobin concentration,"Hamp1-/- mice [3]; 50 nmoles per day s.c., 2 weeks",3 g/dL
same,anemia,"Hamp1-/- mice [3]; 100 nmoles daily, 2 weeks",moderately anemic
same,reduction of hemoglobin concentration,"Hamp1-/- mice [3]; 100 nmoles per day s.c., 2 weeks",5 g/dL
same,maximal tolerated dose,Hamp1-/- mice [3]; daily s.c. dosing,50 nmol
same,decrease in hemoglobin,Hamp1-/- mice [4],2 g/dL
PR82: SEQ ID NO: 101; Ida-T-H-Dpa-bhPro-R-C-R-W-Ahx-Ida(NHPal) (Ida-TH[Dip][β3hP]RCRW-{Ahx-Ida(NHPal)}),Active @ 20 nmoles/mouse IP,mouse [5],Y
